Experiments:
[1] = system: L. major/egfp promastigotes; experiment: Analysis of in vitro anti-leishmanial activity (growth inhibition, egfp fluorescence); type: cell-based, Leishmania major; conditions: 25° C., 72 h, Amphotericin B positive control defined as 100%, FIG. 9
Experimental: The compounds represented by formulas (1) to (6), which had been isolated by the procedure described above, were subjected to an analysis of the physiological activity under the conditions that are described below. Leishmania major promastigotes were selected as the Leishmania protozoa, and a L. major/egfp promastigotes in which a fluorescent protein egfp gene had been introduced was used. The compounds mentioned above were used as samples. Thus, the growth inhibition rate was determined under the following conditions.
L. major/egfp promastigotes were maintained at 25° C. using a 96-well plate, in 199 medium (NISSUI Pharmaceutical) containing 10% fetal bovine serum 25 mM and Hepes buffer (ICN Biomedeivals, Inc., Aurora, Ohio) and 10 μg/mL Tunicamycin (SIGMA-ALDRICH, inc., USA). Subsequently, to each well of 96-well plates containing 100 μL of L. major/egfp suspension with 1×10^6 cells/mL, 100 μL of test solution (sample dissolved in DMSO) was added, and the plates were incubated at 25° C. for 72 h. Thereafter, Fluorescence signals of L. major/egfp promastigotes were measured with a fluorescence microplate reader (Fluoroscan Ascent FL, Dainippon Pharmaceutical Co.) with excitation at 485 nm and emission at 538 nm. […]

L. major PM2 = experiment: Analysis of in vivo anti-leishmanial activity in leishmaniasis mouse model; conditions: Balb/c mice infected with L. major PM2; 200 μg by peritoneal injection once a day for three weeks; FIG. 10-12
Experimental: In order to evaluate the in vivo anti-leishmanial activity of the compound represented by formula (3), which had been isolated by the procedure described above, a leishmaniasis mouse model was used to investigate the therapeutic effect. Six-week old mice (Balb/c, male, 6 animals per group) were infected with 1×10^7 cells of cultured promastigotes of L. major PM2. From the day after the infection day, the compound represented by the formula (3) was administered to each specimen in an amount of 200 [μg by peritoneal injection. The administration schedule was such that the compound was continuously administered once a day for three weeks. Further, as control, the same analysis was carried out also for a treatment group to which Amphotericin B was administered, and for a treatment group to which none was administered.

CC(C)=CCC/C(C)=C/CC/C(C)=C/CC/C(C)=C/CC1(CC(=O)O)CC(=O)C=CC1=O (centres unmarked) [formula (3)]
growth inhibition rate [1]: almost equal to the growth inhibition rate of Amphotericin B
in vivo anti-leishmanial activity (size of ulcer, antibody titer in blood, protozoan DNA in blood) (L. major PM2): equal to that of Amphotericin B

Source: patent US8373006B2, “Anti-leishmanial compound and anti-leishmanial drug” (Aoyama Gakuin Educational Foundation, priority 2010, dated 2013)
